Assay results reported in PubChem BioAssay AID651977 (The Scripps Research Institute Molecular Screening Center, 2013).
Active and inactive are the calls of the source. No rule for the calls is given here.

Target: Steroidogenic factor 1 (Homo sapiens) (UniProt Q13285)
Experiment: SF1 (NR5A1) inverse agonist potency, late-stage follow-up, selectivity assay for LRH-1 inverse agonist project, cell-based, luminescence, dose response (AID 651977)
Conditions: SF1 cell-based luciferase reporter, inverse agonism

Chain of Steroidogenic factor 1 (Homo sapiens) (Q13285 whole entry, looked up): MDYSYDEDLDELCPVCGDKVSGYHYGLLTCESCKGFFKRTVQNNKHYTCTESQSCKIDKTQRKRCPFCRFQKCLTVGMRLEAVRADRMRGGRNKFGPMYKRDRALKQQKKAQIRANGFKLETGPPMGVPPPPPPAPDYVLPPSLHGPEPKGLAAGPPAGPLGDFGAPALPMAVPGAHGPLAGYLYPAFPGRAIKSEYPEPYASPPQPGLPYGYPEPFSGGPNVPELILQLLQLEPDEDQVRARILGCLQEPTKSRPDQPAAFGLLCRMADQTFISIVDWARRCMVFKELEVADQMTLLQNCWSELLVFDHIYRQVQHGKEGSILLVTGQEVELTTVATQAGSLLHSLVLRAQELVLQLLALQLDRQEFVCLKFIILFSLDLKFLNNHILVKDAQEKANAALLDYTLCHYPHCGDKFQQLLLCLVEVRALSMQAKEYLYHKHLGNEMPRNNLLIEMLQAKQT

| SMILES | IC50 |
| --- | --- |
| COc1ccc(NS(=O)(=O)c2ccc(OCC(=O)N3CCN(C)CC3)cc2)cc1Cl | 9.99 µM |
| O=C(Nc1nc2c(Cl)cccc2s1)c1ccc([N+](=O)[O-])o1 | > 12 µM (inactive) |
| Cc1cc(Br)ccc1NC(=O)CSc1nnc(CN2CCOCC2)n1C | > 35.9 µM (inactive) |
| Cc1ccc(NC(=O)CSc2sc3c(O)cc(=O)[nH]c3c2C#N)c(F)c1 | > 35.9 µM (inactive) |
| CCCc1cc(=O)oc2cc(OCC(=O)NCCc3ccc(S(N)(=O)=O)cc3)ccc12 | inactive |
| Cc1cc(C)c2sc(NC(=O)c3ccc([N+](=O)[O-])o3)nc2c1 | > 35.9 µM (inactive) |
| O=C(CSc1nc(=O)n2cc(Cl)ccc2n1)Nc1ccc2c(c1)OCCO2 | inactive |
| Cc1ccc(-c2csc(NC(=O)c3ccc([N+](=O)[O-])o3)n2)cc1 | > 35.9 µM (inactive) |
| CCCN(CC(=O)Nc1ccc(C(C)=O)cc1)CC(=O)Nc1ccccc1C | inactive |
| COc1ccc(CCNC(=O)COC(=O)c2cc(Cl)nc(Cl)c2)cc1 | > 35.9 µM (inactive) |
| Cc1cc(OCC(=O)Nc2nccs2)c2c(C)cc(=O)oc2c1 | > 35.9 µM (inactive) |
| O=C(COc1ccc2c3c(c(=O)oc2c1)CCC3)NCc1ccncc1 | > 35.9 µM (inactive) |
| CC(=O)Nc1ccc(N=c2cc([N+](=O)[O-])cc(Cl)n2O)cc1 | > 12 µM (inactive) |
| COc1ccc(NC(=O)COC(=O)c2cc(S(=O)(=O)N3CCCC3)ccc2O)cc1 | > 35.9 µM (inactive) |
| Cc1cccc(NC(=O)COC(=O)CN2C(=O)c3ccccc3C2=O)c1C | > 35.9 µM (inactive) |
| COc1ccc(NC(=O)CSc2ccc3c(c2)OCCO3)cc1 | > 35.9 µM (inactive) |
| COC(=O)c1ccc(NC(=O)CSc2nc3ncccc3[nH]2)cc1 | > 35.9 µM (inactive) |
| CCn1c(SCC(=O)Nc2ccc(Cl)cc2)nnc1C1CC1 | > 35.9 µM (inactive) |
| CCCc1cc(=O)oc2cc(C)cc(OCC(=O)NC3CC3)c12 | 2.67 µM |
| CCc1c(C)nc(SCC(=O)Nc2ccc3c(c2)OCCO3)[nH]c1=O | 7.83 µM |
| COc1ccc(NC(=O)CSc2sc3c(O)cc(=O)[nH]c3c2C#N)c(OC)c1 | > 35.9 µM (inactive) |
| COc1ccc(CCNC(=O)COC(=O)C23CC4CC(CC(C4)C2)C3)cc1 | 4.42 µM |
| O=C(COC(=O)c1ccc[n+]([O-])c1)Nc1ccc([N+](=O)[O-])cc1Cl | > 35.9 µM (inactive) |

| SMILES | IC50 |
| --- | --- |
| O=C(NCC1CCCO1)c1ccc(NC(=O)c2cccc([N+](=O)[O-])c2)cc1 (centres undefined) | 1.02 µM |
| CC(=O)c1ccc(OC(C)C(=O)OCC(=O)NCCc2ccccc2)cc1 (centres undefined) | > 35.9 µM (inactive) |
| CCc1cc(=O)[nH]c(SCC(=O)Nc2ccc3c(c2)OCCO3)n1 | > 35.9 µM (inactive) |
| Cc1ccc(NC(=O)COC(=O)C(NS(=O)(=O)c2ccc(Cl)cc2)C(C)O)cc1C (centres undefined) | 2.28 µM |
| CCc1cc(=O)oc2c(C)c(OCC(=O)NCCN3CCOCC3)ccc12 | inactive |
| COCCn1c(C)cc(/C=C(\C#N)C(=O)OCC(=O)Nc2ccc(S(N)(=O)=O)cc2)c1C | > 35.9 µM (inactive) |
| Cc1ccc(NC(=O)COC(=O)c2cc(=O)c3ccccc3o2)c(Br)c1 | > 35.9 µM (inactive) |
| COC(=O)c1ccc(NC(=O)CSc2ccc(-c3ccccn3)nn2)cc1 | > 35.9 µM (inactive) |
| COC(=O)c1ccc(NC(=O)COc2cccc(-n3cnnn3)c2)cc1 | > 12 µM (inactive) |
| CC1SC(C)C(=O)N(CC(=O)Nc2ccc3c(c2)OCO3)C1=O (centres undefined) | > 35.9 µM (inactive) |
| COc1ccc(-n2c(N)c(C(=O)NCc3cccnc3)sc2=S)cc1 | > 35.9 µM (inactive) |
| COc1ccccc1Oc1nnnn1-c1ccc(C(N)=O)cc1 | inactive |
| COc1ccc(CCNC(=O)CSc2ccc(NC(C)=O)cc2)cc1OC | 8.79 µM |
| Cc1ccc(NC(=O)CSc2nc3[nH]c(=O)cc(O)c3s2)c(Br)c1 | > 35.9 µM (inactive) |
| O=C(NCc1ccco1)c1nn(-c2ccccc2)c(=O)c2ccccc12 | > 35.9 µM (inactive) |
| CCOc1ccc(NC(=O)CSc2nncc(=O)n2N)cc1 | > 35.9 µM (inactive) |
| COc1ccc(NC(=O)CSc2nnc3ccc(-c4cccnc4)nn23)cc1OC | 1.59 µM |
| COc1ccc(CCNC(=O)CSc2nc3[nH]c(=O)cc(O)c3s2)cc1 | > 35.9 µM (inactive) |
| O=c1[nH]c(Nc2ccc3c(c2)OCCO3)nnc1Cc1ccccc1 | > 12 µM (inactive) |
| COCC(=O)NC1CCN(CC(=O)Nc2ccc(OC)cc2[N+](=O)[O-])CC1 | > 35.9 µM (inactive) |
| CCOc1ccc(OCCN2C(=O)NC(Cc3c[nH]c4ccccc34)C2=O)cc1 (centres undefined) | inactive |
| COC(=O)c1ccc(NC(=O)CN2CCN(c3ccc(Cl)cc3)CC2)cc1 | > 35.9 µM (inactive) |
| COc1ccc(CCNC(=O)COC(=O)Cc2ccccc2[N+](=O)[O-])cc1 | > 12 µM (inactive) |

| SMILES | IC50 |
| --- | --- |
| O=C1CCCN2N=C(SCC(=O)Nc3ccc(Br)cc3)SC2=N1 | > 35.9 µM (inactive) |
| CCCc1cc(=O)oc2c(C)c(OCC(=O)NCCN3CCOCC3)ccc12 | 5.64 µM |
| COC(=O)c1ccc(CNC(=O)COC(=O)c2cc(Cl)nc(Cl)c2)cc1 | inactive |
| Cc1cc(C)c2nc(NC(=O)c3ccc([N+](=O)[O-])o3)sc2c1 | > 35.9 µM (inactive) |
| Cc1cc(Br)ccc1NC(=O)CN1C(=O)C2CC=CCC2C1=O (centres undefined) | 0.351 µM |
| CCOc1ccc(OCCC(=O)OCC(=O)Nc2ccc3c(c2)OCCO3)cc1 | > 35.9 µM (inactive) |
| COc1ccc(NC(=O)CSc2nc(N)c(-c3ccccc3)c(=O)[nH]2)cc1 | 9.92 µM |
| Cc1nn(CC(=O)Nc2ccc3c(c2)OCCO3)c(C)c1[N+](=O)[O-] | > 35.9 µM (inactive) |
| COC(=O)c1ccc(NC(=O)CSc2nn3c(=O)c(C)nnc3s2)cc1 | > 35.9 µM (inactive) |
| CCOc1ccc(NC(=O)CSc2nc3[nH]ncc3c(=O)[nH]2)cc1 | > 35.9 µM (inactive) |
| CCOc1ccc(NC(=O)CN2CCN(CC(=O)Nc3ccc(OC)cc3)CC2)cc1 | > 35.9 µM (inactive) |
| Cc1ccc2cccc(OCC(=O)NCCC3=CCCCC3)c2n1 | 2.22 µM |
| Cc1ccc(NC(=O)COC(=O)C(NS(=O)(=O)c2ccc(Cl)cc2)C(C)O)c(Br)c1 (centres undefined) | > 35.9 µM (inactive) |
| CCOc1ccc(NC(=O)COC(=O)CC2CCCCC2)cc1 | > 35.9 µM (inactive) |
| NC(=O)C1CCN(C(=O)COc2ccc3c4c(c(=O)oc3c2)CCCC4)CC1 | > 35.9 µM (inactive) |
| O=C(CSc1nnc(CNC(=O)c2ccccc2F)o1)Nc1ccc2c(c1)OCCO2 | > 35.9 µM (inactive) |
| O=C(CSc1nnc(CNC(=O)c2c(F)cccc2F)o1)Nc1ccc2c(c1)OCCO2 | inactive |
| O=C(OCC(=O)N1CCN(C(=O)COC(=O)c2ccc(O)cc2O)CC1)c1ccc(O)cc1O | 3.55 µM |
| CCCc1cc(=O)oc2cc(OCC(=O)NCc3ccccn3)ccc12 | > 35.9 µM (inactive) |
| COc1ccc(C2(C)NC(=O)N(CC(=O)NCCC3=CCCCC3)C2=O)cc1OC (centres undefined) | > 12 µM (inactive) |
| CCOc1ccc(NC(=O)COC(=O)c2ccc3c(c2)OCCO3)cc1 | > 12 µM (inactive) |
| O=C(COC(=O)CCN1C(=O)C2CC=CCC2C1=O)NCCc1ccc(F)cc1 (centres undefined) | > 35.9 µM (inactive) |
| O=C(Nc1ccccc1)c1oc2ccccc2c1NC(=O)C1CC1 | inactive |

| SMILES | IC50 |
| --- | --- |
| Cc1sc(NC(=O)C(C)C)c(C(=O)Nc2ccccc2)c1C | 9.22 µM |
| CC(=O)c1ccc(NC(=O)C(C)O/N=C(\N)c2ccccc2)cc1 (centres undefined) | inactive |
| O=C(Nc1ccc(S(=O)(=O)N2CCOCC2)cc1)c1cccc([N+](=O)[O-])c1 | > 12 µM (inactive) |
| COc1ccc(NC(=O)CN2C(=O)NC3(CCCC3)C2=O)cc1 | > 35.9 µM (inactive) |
| CCCc1nnc(SCC(=O)Nc2ccc(C(=O)OCC)cc2)o1 | > 35.9 µM (inactive) |
| COc1ccc(NC(=O)COC(=O)c2c(-c3ccccc3)noc2C)cc1 | 3.19 µM |
| COC(=O)c1ccc(NC(=O)CSc2nncn2-c2cccnc2)cc1 | > 35.9 µM (inactive) |
| Cc1ccn2c(=O)nc(SCC(=O)Nc3ccc4c(c3)OCCO4)nc2c1 | > 35.9 µM (inactive) |
| CCCc1cc(=O)oc2c(C)c(OCC(=O)NCCCn3ccnc3)ccc12 | 6.68 µM |
| O=C(COC(=O)c1ccc(=O)n(Cc2ccccc2)n1)Nc1ccc2c(c1)OCCO2 | > 35.9 µM (inactive) |
| N#CCSc1ccccc1NC(=O)CN1C(=O)C2CC=CCC2C1=O (centres undefined) | > 35.9 µM (inactive) |
| Cc1cc(=O)oc2c(C)c(OCC(=O)NC3CC(C)(C)NC(C)(C)C3)ccc12 | > 35.9 µM (inactive) |
| O=C(Nc1ccc(Br)cn1)c1ccc([N+](=O)[O-])o1 | > 35.9 µM (inactive) |
| COc1ccc(CCNC(=O)CSc2nn3c(=O)c(C)nnc3s2)cc1OC | 5.7 µM |
| CCOc1ccc(NC(=O)COC(=O)COc2cccc3c2OC(C)(C)C3)cc1 | > 35.9 µM (inactive) |
| O=C(COc1ccc2c3c(c(=O)oc2c1)CCCC3)NCc1ccccn1 | > 35.9 µM (inactive) |
| COc1ccc(CCNC(=O)COC(=O)c2cccn2C)cc1 | > 35.9 µM (inactive) |
| CCOc1ccc(NC(=O)CSc2nnc(C(C)C)n2CC)cc1 | > 35.9 µM (inactive) |
| Cc1cccc(NC(=O)COC(=O)Cc2cccs2)c1C | > 35.9 µM (inactive) |
| CC(=O)Nc1ncc(Cc2cc(Cl)ccc2Cl)s1 | inactive |
